Reference: patent EP0651055A2 (priority 1993, dated 1995)

Experiments:
[1] = target: T1, recombinant human acetylcholinesterase (HuAChE), wild type (Homo sapiens, UniProt P22303); conditions: read-out: Km (ATC); pH 8
[2] = tested on: CC(=O)SCCC(C)(C)C; experiment: purified protein, by the assay type; conditions: pH 8.0; 27.0 °C
[3] = target: recombinant HuAChE mutant Phe338Ala (Homo sapiens, UniProt P22303, F369A); type: biochemical
[4] = target: recombinant HuAChE mutant Glu450Ala (Homo sapiens, UniProt P22303, E481A); type: biochemical
Chain of recombinant HuAChE mutant Glu450Ala (P22303 32-614 E481A limits assumed): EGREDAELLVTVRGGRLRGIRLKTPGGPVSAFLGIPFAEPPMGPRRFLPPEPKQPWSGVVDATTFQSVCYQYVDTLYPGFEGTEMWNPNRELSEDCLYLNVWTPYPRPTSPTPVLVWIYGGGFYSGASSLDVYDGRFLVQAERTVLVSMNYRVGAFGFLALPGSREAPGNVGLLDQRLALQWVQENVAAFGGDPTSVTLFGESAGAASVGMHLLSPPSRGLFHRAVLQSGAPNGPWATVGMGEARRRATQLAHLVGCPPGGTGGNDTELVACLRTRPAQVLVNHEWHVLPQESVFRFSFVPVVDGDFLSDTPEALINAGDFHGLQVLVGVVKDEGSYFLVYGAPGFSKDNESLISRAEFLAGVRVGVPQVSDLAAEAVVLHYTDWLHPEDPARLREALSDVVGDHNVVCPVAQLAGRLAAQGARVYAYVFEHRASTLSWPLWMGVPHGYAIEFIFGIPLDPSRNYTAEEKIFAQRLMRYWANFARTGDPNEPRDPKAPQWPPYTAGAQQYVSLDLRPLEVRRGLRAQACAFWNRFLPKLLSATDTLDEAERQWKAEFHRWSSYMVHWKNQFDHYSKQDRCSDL

[5] = target: recombinant HuAChE mutant Glu202Gln (Homo sapiens, UniProt P22303, E233Q); type: biochemical
Chain of recombinant HuAChE mutant Glu202Gln (P22303 32-614 E233Q limits assumed): as the sequence (P22303 32-614 E481A limits assumed) above, with E202Q, A450E counted along it

[6] = target: recombinant HuAChE mutant Tyr337Ala (Homo sapiens, UniProt P22303, Y368A); type: biochemical
Chain of recombinant HuAChE mutant Tyr337Ala (P22303 32-614 Y368A limits assumed): as the sequence (P22303 32-614 E481A limits assumed) above, with Y337A, A450E counted along it

[7] = target: T1, recombinant human acetylcholinesterase (HuAChE), wild type; type: biochemical
[8] = tested on: CC(=O)SCC[N+](C)(C)C; experiment: purified protein, by the assay type; conditions: other: Tyr133Ala, sodium-phosphate buffer pH 8, 27°C

T1 sequence (P22303 32-614): as the sequence (P22303 32-614 E481A limits assumed) above, with A450E counted along it
Chain of recombinant HuAChE mutant Phe338Ala (P22303 32-614 F369A limits assumed): as the sequence (P22303 32-614 E481A limits assumed) above, with F338A, A450E counted along it

Compound: CC(=O)SCC[N+](C)(C)C.[I-] [ATC, Acetylthiocholine iodide]
- Km [1]: 130 ± 15 µM

Compound: recombinant human acetylcholinesterase (HuAChE), wild type (Homo sapiens)
- Km [2]: 280 ± 80 µM

Compound: CCOP(=O)(OCC)Oc1ccc([N+](=O)[O-])cc1 [paraoxon]
- ki (paraoxon) relative to the wild type [3]: 7.1±0.6 (0.07)
- ki, rate constant of phosphylation (paraoxon) ([3]; acetylcholinesterase): 7.1±0.6 (0.07) x 10^-4.M^-1.min^-1
- ki (paraoxon) relative to the wild type [4]: 1.9±0.7 (0.02)
- ki (paraoxon) relative to the wild type [5]: 2.8±0.48(0.03)
- ki, rate constant of phosphylation (paraoxon) ([5]; acetylcholinesterase): 2.8±0.48(0.03) x 10^-4.M^-1.min^-1
- ki (paraoxon) relative to the wild type [6]: 14.4±1.4 (0.15)
- ki, rate constant of phosphylation (paraoxon) ([6]; acetylcholinesterase): 14.4±1.4 (0.15) x 10^-4.M^-1.min^-1
- ki (paraoxon) relative to the wild type [7]: 97 ±16 (1.00)

Compound: recombinant HuAChE mutant Tyr133Ala (Homo sapiens; Y164A)
- Km [8]: 5750 µM
